According to PubChem BioAssay AID2060491 (Molecular Pharmacology Branch, DTP, NCI, 2025):

System: 857933-349-R-J2-PDC complex spheroids, viability
Assay: Anticancer human tumor 857933-349-R-J2-PDC patient-derived colon adenocarcinoma cell line growth inhibition [GQUAD]
Conditions: for IC50: curve of first compound; for viability, T/C: stronger effect = lower value; active means viability on the fitted dose curve at most 10% of control; inactive means the rest
Text: DNA G-quadruplex Stabilizer Agents in Combinations in Complex Spheroids
A high-throughput screen of multi-cell type tumor spheroids was designed to identify active combinations of DNA G-quadruplex stabilizer agents and targeted small molecules. Complex spheroids include a stromal component modeled by human endothelial cells (HUVEC) and fibroblasts modeled by human mesenchymal stem cells (MSCs). The concentration ranges selected for each drug and investigational agent were based upon clinically achievable concentrations if the clinical Cmax of the agent was known.
Compounds. The drugs and investigational agents: pidnarulex (CX-5461; NSC782164), APTO-253 (NSC789042), BRACO-19 (NSC847499), peposertib (NSC802822), ceralasertib (NSC780249), elimusertib (NSC800525), camonsertib (NSC841442), AZD-1390 (NSC803789), olaparib (NSC753686), talazoparib (NSC767125), ART-558 (NSC835418), sotorasib (NSC818433), MRTX-1133 (NSC836407), SN-38 (NSC673596), topotecan (NSC609699), etoposide (NSC141540), doxorubicin (NSC123127), gemcitabine (NSC613327), 5-fluorouracil (NSC19893), paclitaxel (NSC125973), vemurafenib (NSC761431), panobinostat (NSC761190), R-306465 (JNJ-16241199; NSC773264), adavosertib (NSC754352), TP-3654 (NSC805149), carboplatin (NSC241240), KSQ-4279 (NSC840948), and staurosporine (NSC755774) were obtained from the National Cancer Institute (NCI) Developmental Therapeutics Program Chemical Repository (34). The FDA-approved anticancer drug set is available from the NCI Developmental Therapeutics Program. […] The stock solutions were prepared in dimethyl sulfoxide (DMSO, Sigma-Aldrich, St. Louis, MO, cat. D2650) at 800-fold the tested concentration and stored at -70 degrees C prior to their use. All drugs and investigational agents were tested over a range starting from a high concentration at or near the clinical Cmax and decreasing in half-log increments. If the clinical Cmax for an agent had not been determined, the highest concentration tested was 10 microM.
2.3 Cell Culture. All cells were maintained in an incubator at 37 degrees C and 5% CO2 with 95% humidity. The PDC lines were cultured according to standard operating procedures established by the NCI PDMR. All PDCs were thawed and cultured in Matrigel-coated flasks prepared with a working solution of 1X Ham's F-12 nutrient mix, without supplementation (Invitrogen, cat. 11765054), 100 U/mL penicillin-streptomycin (Invitrogen, cat. 15140122), and 2.5% Matrigel (Corning Inc., cat. 354248) for the first three passages. The 857933-349-R-J2-PDC line was cultured in 6C/Colon 1B media, which includes advanced DMEM/F-12 (Thermo Fisher Scientific, cat. 12634028), 10 mM HEPES (Thermo Fisher Scientific, cat. 15630080), 1X GlutaMAX supplement (Thermo Fisher Scientific, cat. 35050061), 0.1 mg/mL primocin (InvivoGen, cat. ant-pm-2), 10% defined fetal bovine serum, heat inactivated (HyClone Laboratories Inc., cat. SH30070.03HI), 50% L-WRN conditioned media (ATCC, cat. CRL-3276), 1.25 mM N-Acetyl-L-cysteine (Sigma-Aldrich, cat. A9165), 10 mM nicotinamide (Sigma-Aldrich, cat. N0636), 1X B-27 supplement (Thermo Fisher Scientific, cat. 17504044), 1X N-2 supplement (Thermo Fisher Scientific, cat. 17502048), 10 microM Y-27632 dihydrochloride (Tocris Bioscience, cat. 1254), and 50 ng/mL human EGF recombinant protein (Thermo Fisher Scientific, cat. PHG0311). The 485176-168-R4-J1-PDC line was cultured in Panc media, which includes all 6C/Colon 1B media components plus 100 ng/mL human FGF-10 (Thermo Fisher Scientific, cat. 100-26), 500 nM SB-431542 (Selleckchem, cat. S1067), and gastrin (Tocris, cat. 3006).
[…]

[1] = second compound 0.0316 µM, first compound 0.0316 µM
[2] = second compound 0.0316 µM, first compound 0.1 µM
[3] = second compound 0.0316 µM, first compound 0.316 µM
[4] = second compound 0.0316 µM, first compound 1 µM
[5] = second compound 0.0316 µM, first compound 3.16 µM
[6] = second compound 0.0316 µM, first compound 10 µM
[7] = second compound 0.1 µM, first compound 0.0316 µM
[8] = second compound 0.1 µM, first compound 0.1 µM
[9] = second compound 0.1 µM, first compound 0.316 µM
[10] = second compound 0.1 µM, first compound 1 µM
[11] = second compound 0.1 µM, first compound 3.16 µM
[12] = second compound 0.1 µM, first compound 10 µM
[13] = second compound 0.316 µM, first compound 0.0316 µM
[14] = second compound 0.316 µM, first compound 0.1 µM
[15] = second compound 0.316 µM, first compound 0.316 µM
[16] = second compound 0.316 µM, first compound 1 µM
[17] = second compound 0.316 µM, first compound 3.16 µM
[18] = second compound 0.316 µM, first compound 10 µM
[19] = second compound 1 µM, first compound 0.0316 µM
[20] = second compound 1 µM, first compound 0.1 µM
[21] = second compound 1 µM, first compound 0.316 µM
[22] = second compound 1 µM, first compound 1 µM
[23] = second compound 1 µM, first compound 3.16 µM
[24] = second compound 1 µM, first compound 10 µM
[25] = second compound 3.16 µM, first compound 0.0316 µM
[26] = second compound 3.16 µM, first compound 0.1 µM
[27] = second compound 3.16 µM, first compound 0.316 µM
[28] = second compound 3.16 µM, first compound 1 µM
[29] = second compound 3.16 µM, first compound 3.16 µM
[30] = second compound 3.16 µM, first compound 10 µM
[31] = second compound 10 µM, first compound 0.0316 µM
[32] = second compound 10 µM, first compound 0.1 µM
[33] = second compound 10 µM, first compound 0.316 µM
[34] = second compound 10 µM, first compound 1 µM
[35] = second compound 10 µM, first compound 3.16 µM
[36] = second compound 10 µM, first compound 10 µM
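Further: spheroids exposed to compounds for one week before readout.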
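Wherever viability, T/C is given: percent viability relative to vehicle DMSO wells taken as 100%.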

CC(=O)O[C@H]1C(=O)[C@@]2(C)[C@H]([C@H](OC(=O)c3ccccc3)[C@]3(O)C[C@H](OC(=O)[C@H](O)[C@@H](NC(=O)c4ccccc4)c4ccccc4)C(C)=C1C3(C)C)[C@]1(OC(C)=O)CO[C@@H]1C[C@@H]2O + Cc1cnc(CNC(=O)c2c(=O)c3ccc(N4CCCN(C)CC4)nc3n3c2sc2ccccc23)cn1
active: viability, T/C [3] 8.87% | viability, T/C [4] 6.32% | viability, T/C [5] 6.9% | viability, T/C [6] 11.3% | viability, T/C [9] 6.78% | viability, T/C [10] 6.48% | viability, T/C [11] 6.61% | viability, T/C [12] 7.71% | viability, T/C [14] 9.67% | viability, T/C [15] 5.73% | viability, T/C [16] 5.21% | viability, T/C [17] 4.57% | viability, T/C [18] 6.73% | viability, T/C [19] 3.73% | viability, T/C [20] 3.78% | viability, T/C [21] 3.68% | viability, T/C [22] 2.27% | viability, T/C [23] 2.21% | viability, T/C [24] 3.57% | viability, T/C [25] 2.95% | viability, T/C [26] 2.49% | viability, T/C [27] 1.98% | viability, T/C [28] 1.77% | viability, T/C [29] 1.78% | viability, T/C [30] 2.45% | viability, T/C [31] 0.16% | viability, T/C [32] 0.18% | viability, T/C [33] 0.19% | viability, T/C [34] 0.14% | viability, T/C [35] 0.17% | viability, T/C [36] 0.19%
< 0.0316 µM: IC50 (second compound 0.0316 µM) | IC50 (second compound 0.1 µM) | IC50 (second compound 0.316 µM) | IC50 (second compound 1 µM) | IC50 (second compound 3.16 µM) | IC50 (second compound 10 µM)
inactive: viability, T/C [1] 40.6% | viability, T/C [2] 13.7% | viability, T/C [7] 31.5% | viability, T/C [8] 14% | viability, T/C [13] 14.6%

O=C(c1cc(Cc2n[nH]c(=O)c3ccccc23)ccc1F)N1CCN(C(=O)C2CC2)CC1 + Cc1[nH]c2ccc(F)cc2c1-c1nc2c3cccnc3c3ncccc3c2[nH]1
inactive: viability, T/C [1] 108% | viability, T/C [2] 95.7% | viability, T/C [3] 98.1% | viability, T/C [4] 96.8% | viability, T/C [5] 118% | viability, T/C [6] 93.4% | viability, T/C [7] 113% | viability, T/C [8] 112% | viability, T/C [9] 92% | viability, T/C [10] 100% | viability, T/C [11] 98.5% | viability, T/C [12] 101% | viability, T/C [13] 102% | viability, T/C [14] 110% | viability, T/C [15] 106% | viability, T/C [16] 97.1% | viability, T/C [17] 103% | viability, T/C [18] 90.9% | viability, T/C [19] 92.5% | viability, T/C [20] 99.7% | viability, T/C [21] 95.7% | viability, T/C [22] 97.6% | viability, T/C [23] 103% | viability, T/C [24] 96.5% | viability, T/C [25] 99.2% | viability, T/C [26] 105% | viability, T/C [27] 98.3% | viability, T/C [28] 98.6% | viability, T/C [29] 100% | viability, T/C [30] 108% | viability, T/C [31] 99.9% | viability, T/C [32] 100% | viability, T/C [33] 101% | viability, T/C [34] 99.8% | viability, T/C [35] 99.3% | viability, T/C [36] 98%
> 10 µM: IC50 (second compound 0.0316 µM) | IC50 (second compound 0.1 µM) | IC50 (second compound 0.316 µM) | IC50 (second compound 1 µM) | IC50 (second compound 3.16 µM) | IC50 (second compound 10 µM)
